# Measured values as given in the supplement of paper PMC10307832.
# Legend:
# Test in all cases: relative viability (nuclei count vs DMSO), 5 days (fraction); higher = more cells survive
# HCC-78 = system: HCC-78
# Outline: (§1)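 Cells from lung cancer lines were seeded into 1536-well plates and, one day later, dosed by pin tool. Treatments were either a single drug or a fixed dose of an anchor drug with five library-drug doses (not always all listed) in √10 steps. After 5 days, nuclei were stained in a one-step fixation (final 0.05% Triton X-100, 1% formaldehyde, 1 ug/ml Hoechst) and counted on 4× images, and relative viability is the treated-to-vehicle nuclei ratio, as the median of duplicate plates.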
# NCI-H460 = system: NCI-H460
# Outline: as §1
# NCI-H2085 = system: NCI-H2085
# Outline: as §1
# LU99A = system: LU99A
# Outline: as §1
# NCI-H1755 = system: NCI-H1755
# Outline: as §1
# NCI-H650 = system: NCI-H650
# Outline: as §1
# HARA = system: HARA
# Outline: as §1
# PC-3 [JPC-3] = system: PC-3 [JPC-3]
# Outline: as §1
# NCI-H596 = system: NCI-H596
# Outline: as §1
# HCC-366 = system: HCC-366
# Outline: as §1
# NCI-H322M = system: NCI-H322M
# Outline: as §1
# NCI-H2087 = system: NCI-H2087
# Outline: as §1
# NCI-H1651 = system: NCI-H1651
# Outline: as §1
# NCI-H358 = system: NCI-H358
# Outline: as §1
# H3255 = system: H3255
# Outline: as §1
# NCI-H1793 = system: NCI-H1793
# Outline: as §1
# 201T = system: 201T
# Outline: as §1
# NCI-H3122 = system: NCI-H3122
# Outline: as §1
# SK-LU-1 = system: SK-LU-1
# Outline: as §1
# COR-L23 = system: COR-L23
# Outline: as §1
# NCI-H23 = system: NCI-H23
# Outline: as §1
smiles,measurement,setting,value
Cc1csc(=NC2CCCCC2)n1/N=C/c1ccc(O)c(O)c1O [MIM1] + Cc1nc(NC(=O)N2CCC[C@H]2C(N)=O)sc1-c1ccnc(C(C)(C)C(F)(F)F)c1 [Alpelisib] (partner 2 µM),relative viability,HCC-78; first compound 0.2 µM,0.329
same,relative viability,HCC-78; first compound 0.6325 µM,0.388
same,relative viability,HCC-78; first compound 2 µM,0.362
same,relative viability,HCC-78; first compound 6.325 µM,0.365
same,relative viability,HCC-78; first compound 20 µM,0.359
same,relative viability,NCI-H460; first compound 0.2 µM,0.43
same,relative viability,NCI-H460; first compound 0.6325 µM,0.549
same,relative viability,NCI-H460; first compound 2 µM,0.456
same,relative viability,NCI-H460; first compound 6.325 µM,0.204
same,relative viability,NCI-H460; first compound 20 µM,0.0234
same,relative viability,NCI-H2085; first compound 0.2 µM,0.946
same,relative viability,NCI-H2085; first compound 0.6325 µM,1.02
same,relative viability,NCI-H2085; first compound 2 µM,0.984
same,relative viability,NCI-H2085; first compound 6.325 µM,0.84
same,relative viability,NCI-H2085; first compound 20 µM,0.882
same,relative viability,LU99A; first compound 0.2 µM,0.488
same,relative viability,LU99A; first compound 0.6325 µM,0.495
same,relative viability,LU99A; first compound 2 µM,0.459
same,relative viability,LU99A; first compound 6.325 µM,0.487
same,relative viability,LU99A; first compound 20 µM,0.327
same,relative viability,NCI-H1755; first compound 0.2 µM,0.93
same,relative viability,NCI-H1755; first compound 0.6325 µM,0.953
same,relative viability,NCI-H1755; first compound 2 µM,0.961
same,relative viability,NCI-H1755; first compound 6.325 µM,0.72
same,relative viability,NCI-H1755; first compound 20 µM,0.207
same,relative viability,NCI-H650; first compound 0.2 µM,1.19
same,relative viability,NCI-H650; first compound 0.6325 µM,1.1
same,relative viability,NCI-H650; first compound 2 µM,1.27
same,relative viability,NCI-H650; first compound 6.325 µM,1.04
same,relative viability,NCI-H650; first compound 20 µM,0.396
same,relative viability,HARA; first compound 0.2 µM,0.887
same,relative viability,HARA; first compound 0.6325 µM,0.857
same,relative viability,HARA; first compound 2 µM,0.878
same,relative viability,HARA; first compound 6.325 µM,0.361
same,relative viability,HARA; first compound 20 µM,0.165
same,relative viability,PC-3 [JPC-3]; first compound 0.2 µM,1.06
same,relative viability,PC-3 [JPC-3]; first compound 0.6325 µM,1.03
same,relative viability,PC-3 [JPC-3]; first compound 2 µM,1.02
same,relative viability,PC-3 [JPC-3]; first compound 6.325 µM,0.884
same,relative viability,PC-3 [JPC-3]; first compound 20 µM,0.716
same,relative viability,NCI-H596; first compound 0.2 µM,0.491
same,relative viability,NCI-H596; first compound 0.6325 µM,0.501
same,relative viability,NCI-H596; first compound 2 µM,0.525
same,relative viability,NCI-H596; first compound 6.325 µM,0.497
same,relative viability,NCI-H596; first compound 20 µM,0.48
same,relative viability,HCC-366; first compound 0.2 µM,0.37
same,relative viability,HCC-366; first compound 0.6325 µM,0.37
same,relative viability,HCC-366; first compound 2 µM,0.335
same,relative viability,HCC-366; first compound 6.325 µM,0.308
same,relative viability,HCC-366; first compound 20 µM,0.0363
same,relative viability,NCI-H322M; first compound 0.2 µM,0.771
same,relative viability,NCI-H322M; first compound 0.6325 µM,0.737
same,relative viability,NCI-H322M; first compound 2 µM,0.836
same,relative viability,NCI-H322M; first compound 6.325 µM,0.74
same,relative viability,NCI-H322M; first compound 20 µM,0.834
same,relative viability,NCI-H2087; first compound 0.2 µM,1.17
same,relative viability,NCI-H2087; first compound 0.6325 µM,1.2
same,relative viability,NCI-H2087; first compound 2 µM,1.06
same,relative viability,NCI-H2087; first compound 6.325 µM,0.886
same,relative viability,NCI-H2087; first compound 20 µM,0.706
same,relative viability,NCI-H1651; first compound 0.2 µM,0.927
same,relative viability,NCI-H1651; first compound 0.6325 µM,0.974
same,relative viability,NCI-H1651; first compound 2 µM,0.921
same,relative viability,NCI-H1651; first compound 6.325 µM,0.793
same,relative viability,NCI-H1651; first compound 20 µM,0.936
same,relative viability,NCI-H358; first compound 0.2 µM,0.829
same,relative viability,NCI-H358; first compound 0.6325 µM,0.881
same,relative viability,NCI-H358; first compound 2 µM,0.721
same,relative viability,NCI-H358; first compound 6.325 µM,0.383
same,relative viability,NCI-H358; first compound 20 µM,0.274
same,relative viability,H3255; first compound 0.2 µM,0.753
same,relative viability,H3255; first compound 0.6325 µM,0.56
same,relative viability,H3255; first compound 2 µM,0.642
same,relative viability,H3255; first compound 6.325 µM,0.523
same,relative viability,H3255; first compound 20 µM,0.311
same,relative viability,NCI-H1793; first compound 0.2 µM,0.509
same,relative viability,NCI-H1793; first compound 0.6325 µM,0.584
same,relative viability,NCI-H1793; first compound 2 µM,0.717
same,relative viability,NCI-H1793; first compound 6.325 µM,0.579
same,relative viability,NCI-H1793; first compound 20 µM,0.804
same,relative viability,201T; first compound 0.2 µM,1
same,relative viability,201T; first compound 0.6325 µM,1.03
same,relative viability,201T; first compound 2 µM,1.02
same,relative viability,201T; first compound 6.325 µM,0.942
same,relative viability,201T; first compound 20 µM,1.29
same,relative viability,NCI-H3122; first compound 0.2 µM,0.825
same,relative viability,NCI-H3122; first compound 0.6325 µM,0.833
same,relative viability,NCI-H3122; first compound 2 µM,0.881
same,relative viability,NCI-H3122; first compound 6.325 µM,0.644
same,relative viability,NCI-H3122; first compound 20 µM,0.249
same,relative viability,SK-LU-1; first compound 0.2 µM,1
same,relative viability,SK-LU-1; first compound 0.6325 µM,1.06
same,relative viability,SK-LU-1; first compound 2 µM,1.26
same,relative viability,SK-LU-1; first compound 6.325 µM,0.87
same,relative viability,SK-LU-1; first compound 20 µM,0.715
same,relative viability,COR-L23; first compound 0.2 µM,0.725
same,relative viability,COR-L23; first compound 0.6325 µM,0.809
same,relative viability,COR-L23; first compound 2 µM,0.537
same,relative viability,COR-L23; first compound 6.325 µM,0.558
same,relative viability,COR-L23; first compound 20 µM,0.457
same,relative viability,NCI-H23; first compound 0.2 µM,0.653
same,relative viability,NCI-H23; first compound 2 µM,0.555
same,relative viability,NCI-H23; first compound 6.325 µM,0.606
same,relative viability,NCI-H23; first compound 20 µM,0.203
